Data as given in PMC4199632, “Exploring the Anti-Cancer Activity of Novel Thiosemicarbazones Generated through the Combination of Retro-Fragments: Dissection of Critical Structure-Activity Relationships” (PLoS ONE, 2014).
Where two headings read alike, the source gives them in different places.

How the values were obtained:
[1] = tested on: normal human dermal fibroblast (NHDF) cells; test: Proliferation assay (MTS, 96 h), normal mortal cells; assay type: cell-based; settings: 96 h incubation, mean ±SD (3 experiments)
Outline: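 HCT116 p53+/+, HCT116 p53−/− and NHDF cells were seeded 24 h before a 96 h compound exposure at 37 °C, with final DMSO <0.05%. Viability was read by MTS absorbance at 490 nm after 1 h; IC50 was the concentration reducing absorbance to 50% of untreated control.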

SK-N-MC cells = test: Mobilization of cellular 59Fe (59Fe efflux); assay type: cell-based, human; settings: chelator 25 µM; for 59Fe mobilization efficacy compared with controls: SK-N-MC cells; for 59Fe mobilization (% of cellular 59Fe released): 3 h/37°C, prelabeled SK-N-MC cells, control medium 4±1%
Description: The iron transport protein, Tf (Sigma-Aldrich), was labeled with ^59Fe (PerkinElmer Life and Analytical Sciences, Boston, MA) to form ^59Fe2-Tf using standard methods, [7]. Unbound ^59Fe was removed by passage through a Sephadex G25 column and was followed by exhaustive dialysis, [7].
To examine the ability of the novel chelators to mobilize ^59Fe from SK-N-MC cells, ^59Fe efflux experiments were performed using established techniques, [51]. The monolayer of SK-N-MC cells was prelabeled for 3 h at 37°C in MEM containing ^59Fe2-Tf (0.75 µM). Cells were then washed four times with ice-cold PBS and incubated for a further 3 h at 37°C with medium alone (the control) or medium containing the chelator (25 µM). After this incubation, the overlying medium that contained the released ^59Fe was separated from the cells using a Pasteur pipette. Radioactivity was measured in both the cells and supernatant using a γ-scintillation counter (Wallac Wizard 3, Turku, Finland). In these studies, the novel ligands were compared to the previously characterized chelators, DFO and Dp44mT, as their ability to mobilize cellular ^59Fe has been extensively examined in these cells, [12], [17], [18], [50].
Figure 6 Effect of (A) series 1, (B) series 2, (C) series 3, (D) series 4, (E) series 5 and (F) series 6 chelators, relative to the controls DFO and Dp44mT, on ^59Fe mobilization from prelabeled SK-N-MC cells. Cells were incubated for 3 h/37°C with ^59Fe-transferrin (0.75 µM), washed 4 times with ice-cold PBS and then reincubated for 3 h/37°C in the presence or absence of the chelators (25 µM). Release of ^59Fe was then assessed using a γ-scintillation counter. Results are mean ±SD (3 experiments).

[2] = design: method as in PMID 17003122; settings: high, non-optimal doses; cited from earlier work
[3] = tested on: HCT116 p53+/+, HCT116 p53−/−, Raji, HeLa, SK-N-MC and NHDF cells; test: Proliferation assay, ranges stated over several cell-types; assay type: cell-based, human; settings: for IC50: Homo sapiens; for Therapeutic index, NHDF relative to HCT116 cells: range over HCT116 p53+/+ and p53−/− and over the compounds named
Description: The human cancer cell types (neuroepithelioma (SK-N-MC), colon cancer (HCT116 with wild-type p53 (p53^+/+)), Burkitt's lymphoma (Raji) and cervical carcinoma (HeLa)) cells and normal human dermal fibroblasts (NHDF) were obtained from the American Type Culture Collection (ATCC, Manassas, VA, USA). HCT116 null p53 (p53^−/−) cells were obtained from the Maria Sklodowska-Curie Memorial Cancer Center and Institute of Oncology, Poland.
The SK-N-MC cells were cultured in minimum essential medium (MEM; Life Technologies, Grand Island, New York, USA) containing 10% (v/v) fetal bovine serum (FBS; Life Technologies), 1 mM sodium pyruvate (Life Technologies), 1% (v/v) non-essential amino acids (Life Technologies), 2 mM L-glutamine (Life Technologies), 100 U/mL penicillin (Life Technologies), 100 µg/mL streptomycin (Life Technologies) and 0.28 µg/mL fungizone (Bristol Myers Squibb Pharmaceuticals, Montreal, Canada). The HCT116 and NHDF cells were grown in Dulbecco's modified Eagle's medium (DMEM; Sigma-Aldrich) supplemented with 12% (v/v) heat-inactivated FBS (HCT116; Life Technologies) or 15% (v/v) FBS (NHDF; Life Technologies), 100 µg/mL of gentamicin (Polfa Warszawa S.A., Warsaw, Poland), 100 µg/mL of streptomycin (Polfa) and 100 U/mL of penicillin (Polfa). The Raji and HeLa cells were cultured in Roswell Park Memorial Institute medium (RPMI-1640; Sigma-Aldrich) with the addition of 10% (v/v) heat-inactivated FBS (Life Technologies) and the supplements described for SK-N-MC cells above. All cell lines were cultured under standard conditions at 37°C in a humidified atmosphere at 5% CO2 and were subcultured every 3–4 days as required.
The cells were seeded in 96-well plates (SK-N-MC: 1.5×10^4 cells/well; HeLa: 5.0×10^3 cells/well; Raji: 3.0×10^3 cells/well; HCT116: 3.5×10^3 cells/well; NHDF: 3.0×10^3 cells/well) 24 h prior to the addition of the novel compounds. The assays were performed using a 72 h (SK-N-MC, Raji, HeLa) or 96 h (HCT 116, NHDF) incubation period with the agents at 37°C. […] Additionally, DFO and Dp44mT were included as positive controls in all experiments as their activity is well characterized, [42], [50].
Chelator stock solutions were prepared in DMSO and diluted in media so that the final [DMSO] <0.05%. The results were expressed as a percentage of the control and the resulting IC50 values were calculated using GraphPad Prism 5 (GraphPad Software, Inc., La Jolla, CA, USA). The IC50 was defined as the concentration necessary to reduce the absorbance to 50% of the untreated control. Each individual compound was tested in triplicate in a single experiment, with each experiment being repeated three times. After incubation of HCT 116 and NHDF cells with the tested compounds, 20 µL of the CellTiter 96 Aqueous One Solution - MTS (Promega, Madison, WI, USA) solution was added to each well (with 100 µL of DMEM without phenol red) and incubated for 1 h/37°C. The optical density of the samples was analyzed at 490 nm.
MTT (3-[4,5-dimethylthiazol-2-yl]-2,5-diphenyltetrazolium bromide) was used to evaluate the anti-proliferative effects of the chelators in SK-N-MC and Raji cells. Following incubation with the investigated compounds, 10 µL of MTT (5 mg/mL in PBS; Sigma-Aldrich) was added to each well. After a 2 h (SK-N-MC) or 4 h (Raji) incubation, the plates were centrifuged, and the cells were lysed with 100 µL of 10% SDS-50% isobutanol in 0.01 M HCl (SK-N-MC) or DMSO (Raji). The absorbance was measured at 570 nm. The anti-proliferative effects of these novel agents on HeLa cells were estimated using crystal violet staining (0.5% crystal violet solution for 10 min). Finally, the wells were rinsed with water and the cells were lysed with 2% SDS. The optical density of the samples was analyzed at 595 nm.

[4] = tested on: murine M109 lung carcinoma; design: method as in PMID 15150082; settings: five day treatment, 0.4 mg/kg, mice; cited from earlier work
[5] = HCT-116, range over HCT116 p53+/+ and p53−/− cells and over the compounds named, read-out: IC50 range in HCT116 cells

Row | SMILES | IC50 ([1]; Homo sapiens, NHDF, 96 h) [nM] | 59Fe mobilization efficacy compared with controls (SK-N-MC cells) | 59Fe mobilization (% of cellular 59Fe released) (SK-N-MC cells) | also measured
1 | CN(C(=S)N/N=C/c1ccccc1O)C1CCCCC1 [6f] | > 25000 |  |  | 
2 | CCN1CCN(C(=S)N/N=C/c2ccc3ccccc3n2)CC1 [2a] | 9620 ± 1800 | comparable ^59Fe mobilization efficacy to that of the control medium |  | 
3 | CN(C)C(=S)NN=C(c1ccccn1)c1ccccn1 [Dp44mT, di-2-pyridylketone 4,4-dimethyl-3-thiosemicarbazone, reference compound] | 15400 ± 5060 |  | 35±2% | Toxicity finding [2]: cardiac fibrosis; IC50 ([3]; range over the cancer cell-types of Table 1, read-out: IC50 range, anti-cancer activity): 2 to 40 nM; Growth of murine M109 lung carcinoma (% of the control) [4]: 47%
4 | CN(C(=S)N/N=C/c1cnc2ccccc2n1)C1CCCCC1 [5f] | 500 ± 210 | comparable release of ^59Fe relative to DFO |  | 
5 | S=C(NN=C(c1ccccn1)c1ccccn1)N1CCN(c2cnccn2)CC1 [1e] | 14 ± 3 |  | 31–39% | 
6 | S=C(N/N=C/c1ccc2ccccc2n1)N1CCN(c2ccccc2)CC1 [2b] |  | comparable release of ^59Fe relative to DFO |  | IC50 [1]: 33 ± 7 nM; IC50 [3, 5]: 0.8 to 90 nM; Therapeutic index, NHDF relative to HCT116 cells [3]: 0.4–0.8
7 | CN(C(=S)N/N=C/c1ccc2ccccc2n1)C1CCCCC1 [2f] | 15 ± 5 | comparable release of ^59Fe relative to DFO |  | IC50 [3, 5]: 0.8 to 90 nM; Therapeutic index, NHDF relative to HCT116 cells [3]: 0.4–0.8
8 | CC(=O)N(O)CCCCCNC(=O)CCC(=O)N(O)CCCCCNC(=O)CCC(=O)N(O)CCCCCN [DFO, desferrioxamine, reference compound] | > 25000 |  | 11±2% | 
